According to US20030181374A1, “Methods and compositions for stimulating bone growth using inhibitors of microtubule assembly” (priority 2002, published 2003):
Marks after values point to notes of the source that are not given here. Where a SMILES comes first, the peptide text is derived from it. The star is where a group is joined. Cbz = O=C(OCc1ccccc1)*; OtBu = CC(C)(C)O*

Key:
[1] = system: Calvariae of one-month-old ICR Swiss mice; assay: New bone formation on calvariae (new bone width by histomorphometry); format: in vivo; details: x2d, mean ± SE, n=5
Experimental: (§1) Male ICR Swiss white mice, aged 4-6 weeks and weighing 13-26 gm, are employed, using 4-5 mice per group. The calvarial bone growth assay is performed as described in PCT application WO95/24211, incorporated by reference. Briefly, the test compound or appropriate control vehicle is injected into the subcutaneous tissue over the right calvaria of normal mice. Typically, the control vehicle is the vehicle in which the compound was solubilized, and is PBS containing 5% DMSO or is PBS containing Tween (2 μl/10 ml). The animals are sacrificed on day 14 and bone growth measured by histomorphometry. Bone samples for quantitation are cleaned from adjacent tissues and fixed in 10% buffered formalin for 24-48 hours, decalcified in 14% EDTA for 1-3 weeks, processed through graded alcohols; and embedded in paraffin wax. Three to five μm sections of the calvaria are prepared, and representative sections are selected for histomorphometric assessment of the effects on bone formation and bone resorption. Sections are measured by using a camera lucida attachment to trace directly the microscopic image onto a digitizing plate. Bone changes are measured on sections cut 200 μm apart, over 4 adjacent 1×1 mm fields on both the injected and noninjected sides of the calvaria. New bone is identified by its characteristic woven structure, and osteoclasts and osteoblasts are identified by their distinctive morphology. Histomorphometry software (OsteoMeasure, Osteometrix, Inc., Atlanta) is used to process digitizer input to determine cell counts and measure areas or perimeters.
as §1, with “In more detail, male” for “Male”, “above.” for “in PCT application WO95/24211, incorporated by reference.”
Selected compounds and appropriate controls were assayed in vitro (ex vivo) for bone formation activity (described above in “Techniques for Neonatal Mouse Calvaria Assay (in vitro)). Histomorphometrical assessments of ex vivo calvaria were carried out using an OsteoMetrics bone morphometry measurement program, according to the manufacturer's instructions. Measurements were determined using either a 10- or 20-fold objective with a standard point counting eyepiece graticule.
New bone formation was determined (using a 10× objective) by measuring the new bone area formed in one field in 3 representative sections of each bone (4 bones per group). Each measurement was carried out ½ field distance from the end of the suture. Both total bone and old bone area were measured. Data were expressed as new bone width in mm.

ICR Swiss mice = assay: Bone volume and bone formation rates in ICR Swiss mice; format: in vivo; details: n=10
Experimental: Briefly, test compound, positive control compound, PBS, or vehicle alone is administered subcutaneously once per day for 35 days. All animals are injected with calcein nine days and two days before sacrifice (two injections of calcein administered each designated day). Weekly body weights are determined. At the end of the 35-day cycle, the animals are weighed and bled by orbital or cardiac puncture. Serum calcium, phosphate, osteocalcin, and CBCs are determined. Both leg bones (femur and tibia) and lumbar vertebrae are removed, cleaned of adhering soft tissue, and stored in 70% ethanol for evaluation, as performed by peripheral quantitative computed tomography (pQCT; Ferretti, J., Bone (1995) 17:353S-64S), dual energy X-ray absorptiometry (DEXA; Laval-Jeantet A., et al., Calcif Tissue Intl (1995) 56:14-18; J. Casez, et al., Bone and Mineral (1994) 26:61-68) and/or histomorphometry. The effect of test compounds on bone remodeling can thus be evaluated.
Microtubule Inhibitor TN-16 Increases Bone Volume and Bone Formation Rates in ICR Swiss Mice.

BMP2 promoter-Luc = assay: High throughput screening: BMP2 promoter-luciferase reporter in 2T3-BMP-2-LUC osteoblast cells; format: cell-based, mouse; details: 2T3 cells, mean ± SE, n=4
From the text: 2, 1995, the entire contents of which are incorporated herein by reference. This assay is also described as a portion of a study of immortalized murine osteoblasts (derived from a mouse expressing a transgene composed of a BMP2 promoter driving expression of T-antigen) in Ghosh-Choudhery, N., et al., Endocrinology (1996) 137:331-39. In this study, the immortalized cells were stably transfected with a plasmid containing a luciferase reporter gene driven by a mouse BMP2 promoter (˜2736/114 bp), and responded in a dose-dependent manner to recombinant human BMP2.
Briefly, the assay utilizes cells transformed permanently or transiently with constructs in which the promoter of a bone morphogenetic protein, specifically BMP2 or BMP4, is coupled to a reporter gene, typically luciferase. These transformed cells are then evaluated for the production of the reporter gene product; compounds that activate the BMP promoter will drive production of the reporter protein, which can be readily assayed. Many thousands of compounds have been subjected to this rapid screening technique, and only a very small percentage are able to elicit a level of expression of reporter gene 5-fold greater than that produced by vehicle. […] The active compounds (“BMP promoter-active compounds” or “active compounds”) are useful in promoting bone or cartilage growth, and thus in the treatment of vertebrates in need of bone or cartilage growth.
In more detail, the 2T3-BMP-2-LUC cells, a stably transformed osteoblast cell line described in Ghosh-Choudhury et al. Endocrinology (1996) 137:331-39, referenced above, was employed. The cells were cultured using α-MEM, 10% FCS with 1% penicillin/streptomycin and 1% glutamine (“plating medium”), and were split 1:5 once per week. For the assay, the cells were resuspended in a plating medium containing 4% FCS, plated in microtiter plates at a concentration of 5×10^3 cells (in 50 μl)/well, and incubated for 24 hours at 37° C. in 5% CO2. To initiate the assay, 50 μl of the test compound or the control in DMSO was added at 2× concentration to each well, so that the final volume was 100 μl. The final serum concentration was 2% FCS, and the final DMSO concentration was 1%. Compound 59-0008 (10 μM) was used as a positive control.
The treated cells were incubated for 24 hours at 37° C. and 5% CO2. The medium was then removed, and the cells were rinsed three times with PBS. After removal of excess PBS, 25 μl of 1× cell culture lysing reagent (Promega #E153A) was added to each well and incubated for at least ten minutes. Optionally, the plates/samples could be frozen at this point. To each well was added 50 μl of luciferase substrate (Promega #E152A; 10 ml Promega luciferase assay buffer per 7 mg Promega luciferase assay substrate). Luminescence was measured on an automated 96-well luminometer, and was expressed as either picograms of luciferase activity per well or as picograms of luciferase activity per microgram of protein, as provided below, using TN-16 as the test compound.

mice = assay: In vivo assay for bone mineral density; details: x2d, mean ± SE, n=10

For COc1cc2c(c(OC)c1OC)-c1ccc(OC)c(=O)cc1C(NC(C)=O)CC2 (stereo not drawn) [Colchicine, N-(5,6,7,9-Tetrahydro-1,2,3,10-tetra-methoxy-9-oxobenzo[a]heptalen-7-yl) acetamide], the “New Bone Width” value ([1]; 0.1 mg/kg/d) was 0.225 ± 0.013 mm and the “New Bone Width” value ([1]; 1.0 mg/kg/d) was 0.305 ± 0.020 mm.

With COC(=O)Nc1nc2cc(C(=O)c3cccs3)ccc2[nH]1 [Nocodazole, Methyl-[5-(2-thienylcarbonyl)-1 H-benzimidazole-2-yl]-carbamate] the “New Bone Width” value ([1]; 1.5 mg/kg/d) was 0.231 ± 0.027 mm.

For CCC(C)C(NC(=O)OCc1ccccc1)C(=O)NC(CCC(=O)OC(C)(C)C)C(=O)NC(C)C(=O)NC(C=O)CC(C)C (stereo not drawn) [Ps-1] (Cbz-IE(OtBu)AL-aldehyde; configuration not given here), the “Bone Formation Rate: BFR/BS” value (ICR Swiss mice; 1 mg/kg/d, x5, mean ± SE) was 1.766 ± 0.425* μm^3/μm^2/day and the “Bone Volume (%, BV/TV)” value (ICR Swiss mice; 1 mg/kg/d, x5, mean ± SE) was 27.13 ± 1.51 %.

In the case of CC(Nc1ccccc1)=C1C(=O)NC(Cc2ccccc2)C1=O (stereo not drawn) [TN-16, 3-(1-Anilinoethylidene)-5-benzylpyrrolidine-2,4-dione], the “Luciferase Activity (Fold Change) (BMP2 promoter-Luc)” value (from here on “Luciferase Activity (Fold Change)”) (BMP2 promoter-Luc; TN-16 0.16 μM) is reported as 2.4 ± 0.40 Fold Change, the “Luciferase Activity (Fold Change)” value (BMP2 promoter-Luc; TN-16 0.31 μM) is reported as 4.0 ± 0.09 Fold Change and the “Luciferase Activity (Fold Change)” value (BMP2 promoter-Luc; TN-16 0.61 μM) is reported as 4.8 ± 0.50 Fold Change. For the same compound, the “Luciferase Activity (Fold Change)” value (BMP2 promoter-Luc; TN-16 1.25 μM) was 5.6 ± 0.12 Fold Change, the “Luciferase Activity (Fold Change)” value (BMP2 promoter-Luc; TN-16 2.5 μM) was 6.2 ± 0.30 Fold Change and the BMD (mice; Calvariae (1-month-old mice), 4 mg/kg/d) was 26.0 ± 0.7 mg/cm^2. For the same compound, the BMD (mice; Calvariae (1-month-old mice), 8 mg/kg/d) was 31.3 ± 0.5 mg/cm^2, the BMD (mice; Femora (3-month-old mice), 2 mg/kg/d) was 90.1 ± 2.2 mg/cm^2 and the BMD (mice; Femora (3-month-old mice), 4 mg/kg/d) was 100.9 ± 1.6 mg/cm^2. It also gave a BMD (mice; Femora (3-month-old mice), 8 mg/kg/d) of 102.1 ± 1.5 mg/cm^2, a BMD (mice; Tibiae (3-month-old mice), 2 mg/kg/d) of 78.0 ± 2.2 mg/cm^2 and a BMD (mice; Tibiae (3-month-old mice), 4 mg/kg/d) of 84.5 ± 1.0 mg/cm^2. The BMD (mice; Tibiae (3-month-old mice), 8 mg/kg/d) was 85.5 ± 0.8 mg/cm^2, the “New Bone Width” value ([1]; 2 mg/kg/d) was 0.120 ± 0.016 mm and the “New Bone Width” value ([1]; 4 mg/kg/d) was 0.376 ± 0.029 mm. The “New Bone Width” value ([1]; 8 mg/kg/d) was 0.525 ± 0.035 mm, the “Bone Formation Rate: BFR/BS” value (ICR Swiss mice; 2 mg/kg/d, x2, mean ± SE) was 0.815 ± 0.129* μm^3/μm^2/day and the “Bone Volume (%, BV/TV)” value (ICR Swiss mice; 2 mg/kg/d, x2, mean ± SE) was 23.42 ± 3.13 %. The “Bone Formation Rate: BFR/BS” value (ICR Swiss mice; 4 mg/kg/d, x2, mean ± SE) was 1.130 ± 0.293* μm^3/μm^2/day, the “Bone Volume (%, BV/TV)” value (ICR Swiss mice; 4 mg/kg/d, x2, mean ± SE) was 27.21 ± 2.14 % and the “Bone Formation Rate: BFR/BS” value (ICR Swiss mice; 8 mg/kg/d, x2, mean ± SE) was 1.231 ± 0.181** μm^3/μm^2/day. The “Bone Volume (%, BV/TV)” value (ICR Swiss mice; 8 mg/kg/d, x2, mean ± SE) was 25.44 ± 1.29 %.
